What was measured:
[1] = Reaction rate constant of the compound
[2] = Krel expressed as Ki with respect to Ktrolox

SMILES | reaction rate constant [1] | Krel [2]
Cl.Oc1c(Cc2ccccc2)nc2cnc(-c3ccccc3)cn12 | 65000 M⁻¹ s⁻¹ | 3.8
Cl.Oc1c(-c2ccccc2)nc2cnccn12 | 84000 M⁻¹ s⁻¹ | 4.9
Cc1nc2cnc(-c3ccccc3)cn2c1O.Cl | 170000 M⁻¹ s⁻¹ | 10
Cc1nc2cnccn2c1O.Cl | 60000 M⁻¹ s⁻¹ | 3.5
COc1ccc(-c2cn3c(O)c(Cc4ccccc4)nc3cn2)cc1.Cl | 160000 M⁻¹ s⁻¹ | 9.4
Oc1ccc(Cc2nc3c(Cc4ccccc4)nc(-c4ccc(O)cc4)cn3c2O)cc1 [COELENTERAZINE] | 120000 M⁻¹ s⁻¹ | 7.1
Cc1nc2cnc(-c3ccc(O)cc3)cn2c1O.Cl | 210000 M⁻¹ s⁻¹ | 12.3
Cc1c(C)c2c(c(C)c1O)CCC(C)(C(=O)O)O2 (stereo unspecified) [TROLOX] | 17000 M⁻¹ s⁻¹ | 1
Cl.Oc1ccc(-c2cn3c(O)c(Cc4ccccc4)nc3cn2)cc1 | 33000 M⁻¹ s⁻¹ | 1.9
COc1ccc(-c2cn3c(O)c(C)nc3cn2)cc1.Cl | 280000 M⁻¹ s⁻¹ | 16.5
Cl.Oc1c(Cc2ccccc2)nc2cnccn12 | 28000 M⁻¹ s⁻¹ | 1.6
Cl.Oc1ccc(-c2cn3c(O)c(-c4ccccc4)nc3cn2)cc1 | 105000 M⁻¹ s⁻¹ | 6.2
COc1ccc(-c2cn3c(O)c(Cc4ccc(O)cc4)nc3c(Cc3ccccc3)n2)cc1 | 96000 M⁻¹ s⁻¹ | 5.6

Reference: ChEMBL document CHEMBL1133933, “Imidazolopyrazinones as potential antioxidants” (Bioorg Med Chem Lett, 2001)
